Laboratory results from patent US20100311694A1, “Set of Geldanamycin Derivatives and Their Preparation Methods” (Institute of Medicinal Biotechnology, Chinese Academy of …, priority 2008, published 2010).

Assays:
[1] = system: HBV; assay: Anti-HBV activity (HBV DNA in cell lysate, spot hybridization); assay type: cell-based; conditions: HBV DNA content of the cells, reagent solution changed every 4 days
Protocol: Test Procedure for Anti-HBV Activity
Using cell culture method, the preparation of the cells to be tested (100,000 cell's/mL) is inoculated into cell culture plate in 100 μl each well and the cells are cultured 24 h at 37° C. in 5% CO2. Tests are carried out when the cells grow into a monolayer. The target compounds as well as the controls are prepared into a series of solutions of appropriate concentrations using the culture medium and are added into 96 well culture plate respectively in 4 wells per one concentration. Then the reagent solution in each well is changed into the fresh reagent solution with the same concentration every 4 days. A cell control without reagent treatment is simultaneously is set up. The observation index is based upon the pathological changes of the cells by observing the degrees of the pathological changes of the cells under microscope every 8 days. […] Cell control without drug treatment is simultaneously is set up. The reagent solution or control medium in each well is changed into the fresh reagent solution or fresh medium respectively every 4 days. After cytolysis of the cells, HBV DNA is extracted from the cell lysis solution according to the molecular cloning technical procedure. The spots of different samples are hybridized and the A values of different hybridized spots are measured using autoradiograghic technique. The HBV DNA contents in the cell control as well as in the drug treated samples are calculated using the regression equations obtained from the standard curves to obtain half effective concentration values, the results are shown in Table 1.

[2] = system: HIV-1; assay: Anti HIV-1 activity (HIV-1 P24 antigen in cell cultures); assay type: cell-based; conditions: 4 days after addition of the reagents
Protocol: Test Procedure of Anti HIV-1 Activity
8 reagent solutions of different diluted concentrations and positive control solutions are added into cell cultures in 96 well plate respectively. The sample of each diluted solutions is made duplicately and a control cell sample is also is set up. 100 μl of cell sample at a concentration of 2×10^5cells/ml is inoculated into the wells containing reagent in the plate. The cells samples are cultured in a saturated humidity culture chamber (at a 5% CO2 atmosphere) at 37° C. The pathological changes of cells are observed daily.

Row | Compound | Activity of HBV inhibition IC50 [1] [µg/mL] | Activity of HIV inhibition IC50 [2] [µg/mL] | Activity of HBV inhibition IC50, μg/ml [1]
1 | 17-(4′-((5″-(4′″-amino-2′″-oxopyrimidine-1′″-(2H)-yl)-3″,4″-dihydroxyl-tetrahydrofuran-2″yl)methoxyl)-4′-oxobutylamino)-17-de methoxy geldanamycin [GM-CY] | 0.032 | 0.02 | 
2 | 17-(trans-4′-hydroxyl cyclohexylamino)-17-demethoxy geldanamycin [GM-223] |  | 0.10 | 
3 | 17-diethyloxy phosphoryl methylene amino-17-demethoxy geldanamycin [GM-GP] | 3.24 | 1.36 | 
4 | COC1C=CC=C(C)C(=O)NC2=CC(=O)C(NCCCn3ccnc3)=C(CC(C)CC(OC)C(O)C(C)C=C(C)C1OC(N)=O)C2=O (stereo not drawn) [GM-129, 17-(3′-(1″-imidazolyl)propylamino)-17-demethoxy geldanamycin] | 0.32 | 1.92 | 
5 | CCN1CCC[C@H]1CNC1=C2C[C@H](C)C[C@H](OC)[C@H](O)[C@@H](C)/C=C(\C)[C@@H](OC(N)=O)[C@@H](OC)/C=C/C=C(\C)C(=O)NC(=CC1=O)C2=O [GM-206S, 17-(2″S-2″-(N-ethylpyrrolidinyl)-methylamino)-17-demethoxy geldanamycin] | 0.064 | 0.01 | 
6 | CO[C@H]1/C=C/C=C(\C)C(=O)NC2=CC(=O)C(NCCc3ccc(S(N)(=O)=O)cc3)=C(C[C@H](C)C[C@H](OC)[C@H](O)[C@@H](C)/C=C(\C)[C@H]1OC(N)=O)C2=O [GM-208, 17-(4″-aminosulfonyl)phenylethylamino-17-demethoxy geldanamycin] |  | >0.82 | 
7 | CCN1CCCC1CNC1=C2CC(C)CC(OC)C(O)C(C)C=C(C)C(OC(N)=O)C(OC)C=CC=C(C)C(=O)NC(=CC1=O)C2=O (stereo not drawn) [GM-210R, 17-(2″R-2″-(N-ethylpyrrolidinyl)-methylamino)-17-demethoxy geldanamycin] | 0.064 | 0.01 | 
8 | COC1C=CC=C(C)C(=O)NC2=CC(=O)C(NCc3ccc4c(c3)OCO4)=C(CC(C)CC(OC)C(O)C(C)C=C(C)C1OC(N)=O)C2=O (stereo not drawn) [GM-217, 17-(3′,4′-(Methylenedioxy)benzylamino)-17-demethoxygeldanamycin] |  | 0.16 | 
9 | CO[C@H]1/C=C/C=C(\C)C(=O)NC2=CC(=O)C(NCCc3cccs3)=C(C[C@H](C)C[C@H](OC)[C@H](O)[C@@H](C)/C=C(\C)[C@H]1OC(N)=O)C2=O [GM-221, 17-(2′-thienylethylamino)-17-demethoxy geldanamycin] |  | 0.06 | 
10 | CO[C@H]1/C=C/C=C(\C)C(=O)NC2=CC(=O)C(NCCCN3CCCC3=O)=C(C[C@H](C)C[C@H](OC)[C@H](O)[C@@H](C)/C=C(\C)[C@H]1OC(N)=O)C2=O [GM-226, 17-(3′-(2″-pyrrolidonyl)propylamino)-17-demethoxy geldanamycin] | 1.6 | >0.14 | 
11 | CCN1CCCC1CNC1=C2C[C@H](C)C[C@H](OC)[C@H](O)[C@@H](C)/C=C(\C)[C@@H](OC(N)=O)[C@@H](OC)/C=C/C=C(\C)C(=O)NC(=CC1=O)C2=O (stereo partly drawn) [GM-228, 17-(2″-(N-ethylpyrrolidinyl)-methylamino)-17-demethoxy geldanamycin] |  | 0.009 | 0/01
12 | COc1ccc(C=CC(=O)NCCNC2=C3C[C@H](C)C[C@H](OC)[C@H](O)[C@@H](C)/C=C(\C)[C@@H](OC(N)=O)[C@@H](OC)/C=C/C=C(\C)C(=O)NC(=CC2=O)C3=O)cc1OC [GM-413, 17-(2′-(3″,4″-dimethylcaffeoyl amido)ethylamino)-17-demethoxy geldanamycin] | 0.32 | 0.48 | 
13 | COC1C=CC=C(C)C(=O)NC2=CC(=O)C(NCCNC(=O)c3cccnc3)=C(CC(C)CC(OC)C(O)C(C)C=C(C)C1OC(N)=O)C2=O (stereo not drawn) [GM-418, 17-(2′-nicotinamidoethylamino)-17-demethoxy geldanamycin] | 0.08 | 0.37 | 
14 | COC1C=CC=C(C)C(=O)NC2=CC(=O)C(NC3CCN(Cc4ccccc4)CC3)=C(CC(C)CC(OC)C(O)C(C)C=C(C)C1OC(N)=O)C2=O (stereo not drawn) [GM-ABPD, 17-(4′-benzyl-4′-azacyclohexylamino)-17-demethoxy geldanamycin] | 0.32 | <0.03 | 
15 | COC1C=CC=C(C)C(=O)NC2=CC(=O)C(NCCN3CCCCC3)=C(CC(C)CC(OC)C(O)C(C)C=C(C)C1OC(N)=O)C2=O (stereo not drawn) [GM-AEPD, 17-(2′-(1″-azacyclohexyl-1″-)ethylamino)-17-demethoxy geldanamycin] | 0.08 | <0.01 | 
16 | COC1C=CC=C(C)C(=O)NC2=CC(=O)C(NCC3CCNCC3)=C(CC(C)CC(OC)C(O)C(C)C=C(C)C1OC(N)=O)C2=O (stereo not drawn) [GM-AMPP] | 8.0 | 0.06 | 

Row | Compound | Activity of HBV inhibition IC50 [1] [µg/mL] | Activity of HIV inhibition IC50 [2] [µg/mL] | Activity of HBV inhibition IC50, μg/ml [1]
17 | COC1C=CC=C(C)C(=O)NC2=CC(=O)C(NCCN3CCOCC3)=C(CC(C)CC(OC)C(O)C(C)C=C(C)C1OC(N)=O)C2=O (stereo not drawn) [GM-APML, 17-(2′-(1″-oxa-4″-azacyclohexyl-1″-)ethylamino)-17-demethoxy geldanamycin] | 0.064 | <0.01 | 
18 | COC1C=CC=C(C)C(=O)NC2=CC(=O)C(NCC3CCC4CC3C4(C)C)=C(CC(C)CC(OC)C(O)C(C)C=C(C)C1OC(N)=O)C2=O (stereo not drawn) [GM-MTA, 17-(myrtanylamino)-17-demethoxy geldanamycin] | 0.32 | 0.04 | 
19 | COC1C=CC=C(C)C(=O)NC2=CC(=O)C(NCc3ccncc3)=C(CC(C)CC(OC)C(O)C(C)C=C(C)C1OC(N)=O)C2=O (stereo not drawn) [GM-W1] | 0.69 | 36.7 | 
20 | COC1C=CC=C(C)C(=O)NC2=CC(=O)C(NCc3cncc(C)n3)=C(CC(C)CC(OC)C(O)C(C)C=C(C)C1OC(N)=O)C2=O (stereo not drawn) [GM-W2] | 8.0 | 19.6 | 
21 | COC1C=CC=C(C)C(=O)NC2=CC(=O)C(NNC(=O)c3ccco3)=C(CC(C)CC(OC)C(O)C(C)C=C(C)C1OC(N)=O)C2=O (stereo not drawn) [GM-W4] | 3.2 | 0.33 | 
22 | COC1C=CC=C(C)C(=O)NC2=CC(=O)C(NCCS(=O)(=O)O)=C(CC(C)CC(OC)C(O)C(C)C=C(C)C1OC(N)=O)C2=O (stereo not drawn) [GM-W5] | 6.4 | 10.26 | 
23 | COC1C=CC=C(C)C(=O)NC2=CC(=O)C(NC(C)(CO)CO)=C(CC(C)CC(OC)C(O)C(C)C=C(C)C1OC(N)=O)C2=O (stereo not drawn) [GM-W6] | 1.32 | 1.47 | 
24 | COC1C=CC=C(C)C(=O)NC2=CC(=O)C(NC(C)(C)CO)=C(CC(C)CC(OC)C(O)C(C)C=C(C)C1OC(N)=O)C2=O (stereo not drawn) [GM-W7] | 8.0 | 9.89 | 
25 | COC1C=CC=C(C)C(=O)NC2=CC(=O)C(NCC(O)c3ccccc3)=C(CC(C)CC(OC)C(O)C(C)C=C(C)C1OC(N)=O)C2=O (stereo not drawn) [GM-W8] | 1.32 | 1.22 | 
26 | COC1C=CC=C(C)C(=O)NC2=CC(=O)C(NCC(O)c3ccccc3)=C(CC(C)CC(OC)C(O)C(C)C=C(C)C1OC(N)=O)C2=O (stereo not drawn) [GM-W9] | 3.2 | 2.46 | 
27 | COC1C=CC=C(C)C(=O)NC2=CC(=O)C(NCCc3ccc(N)cc3)=C(CC(C)CC(OC)C(O)C(C)C=C(C)C1OC(N)=O)C2=O (stereo not drawn) [GM-W10] | 6.4 | 40.71 | 
28 | COC1C=CC=C(C)C(=O)NC2=CC(=O)C(NN3CCCCC3)=C(CC(C)CC(OC)C(O)C(C)C=C(C)C1OC(N)=O)C2=O (stereo not drawn) [GM-W11] | 8.0 | 3.87 | 
29 | COC(CNC1=C2CC(C)CC(OC)C(O)C(C)C=C(C)C(OC(N)=O)C(OC)C=CC=C(C)C(=O)NC(=CC1=O)C2=O)OC (stereo not drawn) [GM-W12] | 3.2 | 0.46 | 
30 | COC1C=CC=C(C)C(=O)NC2=CC(=O)C(NCC(C)(C)CO)=C(CC(C)CC(OC)C(O)C(C)C=C(C)C1OC(N)=O)C2=O (stereo not drawn) [GM-W16] | 0.064 | 0.43 | 
31 | COC1C=CC=C(C)C(=O)NC2=CC(=O)C(NCCOS(=O)(=O)O)=C(CC(C)CC(OC)C(O)C(C)C=C(C)C1OC(N)=O)C2=O (stereo not drawn) [GM-W17] | 10.3 | 23.47 | 
32 | COC1C=CC=C(C)C(=O)NC2=CC(=O)C(NCCc3ccccn3)=C(CC(C)CC(OC)C(O)C(C)C=C(C)C1OC(N)=O)C2=O (stereo not drawn) [GM-W18] | 50.4 | 33.41 | 
